Measured values from the NIST ThermoML archive (doi:10.1021/acs.jced.7b00761).
± gives the expanded uncertainty stated by the source.

Experiment: wn = mass fraction of the nth substance listed
Settings: 313 K, 101.3 kPa, Liquid, w1 = 0.3

`CCNCCO` [2-(ethylamino)ethanol] + CCN(CC)CCO showed a viscosity (Vibrating wire viscometry) of 3.83 ± 0.21 mPa·s and a mass density (petroleum hydrometers) of 879 ± 3 kg/m3.
